How the values were obtained:
[1] = tested on: YAP nuclear translocation in HaCaT cells; test: YAP Translocation Assay (HaCaT Cells); type: cell-based, human; conditions: 24 hours
Description: HaCaT cells were suspended at 0.4×10^6 cells/ml in DMEM+10% FBS with penicillin-streptomycin-glutamine. 50 μl of cells were dispensed into 384-well clear bottom assay plates (20,000 cells/well), and incubated overnight at 37° C. 100 nL test compound was transferred into the assay wells containing HaCaT cells using ECHO (Labcyte). After 24 hours incubation at 37° C., 7 μL of 32% PFA was dispensed into each well and incubated for 45 minutes at room temperature. Plates were washed 3 times with PBS, leaving 20 μL of PBS per well, then treated with 0.1% Triton and 1.5% BSA in PBS for 45 minutes at room temperature. Plates were washed for 5 times with PBS, leaving 20 μL of PBS per well. […] Plates were further washed 3 time with PBS, sealed and imaged on the high-content Opera imaging system (PerkinElmer).

LATS1 = LATS1 (Homo sapiens (Human), UniProt O95835); test: LATS1 biochemical assay (Table 1A, Compound Examples 1-290; method in the earlier part)
[2] = tested on: Phospho-YAP (SER127) in HaCaT cells; test: pYAP HTRF Assay (HaCaT Cells); type: cell-based, human; conditions: 2 hours
Description: The pYAP HTRF assay was performed using the Phospho-YAP (SER127) 10000 test kit (CisBio, catalogue number 64YAPPEH) according to manufacturer's instructions. Briefly, HaCaT cells were suspended at 1.1×10^6 cells/mL in DMEM (no phenol red)+10% FBS with penicillin-streptomycin-glutamine. 5 μL of cells were dispensed into 1536 well white solid bottom, tissue culture treated plates (5500 cells/well), and incubated for 48 hours at 37° C. 50 nL test compound was transferred into the assay plates containing HaCaT cells using Pintool (GNF) and incubated for 2 hours. […] The plates were incubated overnight (20 hrs) at room temperature covered with metal lids. Plates were read on Pherastar (BMG Labtech) for HTRF (665 nm/620 nm).

LATS1, sequence (O95835 whole entry, looked up): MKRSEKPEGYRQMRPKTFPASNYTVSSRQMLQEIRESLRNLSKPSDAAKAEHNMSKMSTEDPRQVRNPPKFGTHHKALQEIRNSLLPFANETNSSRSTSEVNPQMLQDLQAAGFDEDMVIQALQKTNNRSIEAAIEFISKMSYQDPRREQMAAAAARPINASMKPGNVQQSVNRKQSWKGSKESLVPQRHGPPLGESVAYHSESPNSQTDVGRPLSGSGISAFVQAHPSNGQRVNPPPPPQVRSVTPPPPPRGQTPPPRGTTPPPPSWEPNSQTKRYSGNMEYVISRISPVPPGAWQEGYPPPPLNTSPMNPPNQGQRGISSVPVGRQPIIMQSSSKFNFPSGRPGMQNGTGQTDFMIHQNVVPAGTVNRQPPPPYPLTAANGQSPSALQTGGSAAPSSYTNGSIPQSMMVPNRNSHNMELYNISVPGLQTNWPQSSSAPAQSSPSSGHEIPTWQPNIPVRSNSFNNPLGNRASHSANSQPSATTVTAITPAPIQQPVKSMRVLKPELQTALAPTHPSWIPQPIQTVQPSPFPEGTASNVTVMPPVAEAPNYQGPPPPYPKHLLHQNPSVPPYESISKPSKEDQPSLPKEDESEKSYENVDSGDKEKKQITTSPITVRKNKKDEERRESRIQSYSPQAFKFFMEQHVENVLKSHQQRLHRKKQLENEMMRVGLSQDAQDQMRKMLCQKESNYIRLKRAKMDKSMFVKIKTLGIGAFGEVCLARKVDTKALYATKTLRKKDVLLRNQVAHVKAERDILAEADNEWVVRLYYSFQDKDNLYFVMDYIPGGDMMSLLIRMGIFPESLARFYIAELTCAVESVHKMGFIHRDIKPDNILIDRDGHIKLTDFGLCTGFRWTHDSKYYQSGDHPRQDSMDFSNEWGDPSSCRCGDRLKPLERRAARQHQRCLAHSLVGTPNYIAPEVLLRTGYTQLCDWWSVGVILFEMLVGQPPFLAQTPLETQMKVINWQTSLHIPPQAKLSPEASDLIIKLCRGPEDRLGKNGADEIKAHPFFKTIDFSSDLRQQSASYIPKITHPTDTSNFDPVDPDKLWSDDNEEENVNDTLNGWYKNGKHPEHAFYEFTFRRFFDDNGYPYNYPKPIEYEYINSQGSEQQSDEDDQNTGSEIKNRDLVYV
LATS1, sequence (Q7L9L4 whole entry partner, looked up): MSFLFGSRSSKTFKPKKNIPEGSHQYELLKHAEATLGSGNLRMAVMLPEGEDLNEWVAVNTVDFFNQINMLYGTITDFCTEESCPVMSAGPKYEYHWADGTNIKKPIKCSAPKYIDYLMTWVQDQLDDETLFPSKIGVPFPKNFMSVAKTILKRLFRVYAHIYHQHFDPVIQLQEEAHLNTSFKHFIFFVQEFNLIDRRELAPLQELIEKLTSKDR

Row | SMILES | IC50 (LATS1) [nM] | EC50 ([1]; Homo sapiens) [nM] | IC50 ([2]; Homo sapiens) [nM] | EC50 [1] [nM] | IC50 [2] [nM]
1 | C[C@H]1CCC[C@H]1Nc1nc(-c2ccncc2)nc2cnccc12 (single isomer, unassigned) [Example 17a] | 3 | 4100 | 4950 | – | –
2 | C[C@@H]1CCC[C@@H]1Nc1nc(-c2ccncc2)nc2cnccc12 (single isomer, unassigned) [Example 17b] | 0.9 | 1220 | 765 | – | –
3 | CC1CCCC1Nc1nc(-c2ccncc2)nc2cnccc12 (single isomer, unassigned) [Example 17c] | 3 | – | – | 4680 | 4280
4 | CC1CCCC1Nc1nc(-c2ccncc2)nc2cnccc12 (single isomer, unassigned) [Example 17d] | 1 | – | – | 1720 | 402
5 | CC(C)(Nc1nc(-c2ccncc2)nc2cnccc12)C1CC1 [Example 1, N-(2-cyclopropylpropan-2-yl)-2-(pyridin-4-yl)pyrido[3,4-d]pyrimidin-4-amine] | 1 | 326 | 19 | – | –
6 | CCCCN(C)c1nc(-c2ccncc2)nc2cnccc12 [Example 9, N-butyl-N-methyl-2-(pyridin-4-yl)pyrido[3,4-d]pyrimidin-4-amine] | 3 | 2420 | 2100 | – | –
7 | CCNc1nc(-c2ccncc2)nc2cnccc12 [Example 13, N-ethyl-2-(pyridin-4-yl)pyrido[3,4-d]pyrimidin-4-amine] | 4 | 8510 | 13400 | – | –
8 | CC1(Nc2nc(-c3ccncc3)nc3cnccc23)COC1 [Example 16, N-(3-methyloxetan-3-yl)-2-(pyridin-4-yl)pyrido[3,4-d]pyrimidin-4-amine] | 5 | 15800 | 9790 | – | –
9 | CC(O)C(C)(C)Nc1nc(-c2ccncc2)nc2cnccc12 (stereo not shown) [Example 18, 3-methyl-3-{[2-(pyridin-4-yl)pyrido[3,4-d]pyrimidin-4-yl]amino}butan-2-ol] | 6 | 3460 | 1520 | – | –
10 | CCCCNc1nc(-c2ccncc2)nc2cnccc12 [Example 19, N-butyl-2-(pyridin-4-yl)pyrido[3,4-d]pyrimidin-4-amine] | 6 | 17600 | 24800 | – | –
11 | CC(C)(CCc1ccccc1)Nc1nc(-c2ccncc2)nc2cnccc12 [Example 20, N-(2-methyl-4-phenylbutan-2-yl)-2-(pyridin-4-yl)pyrido[3,4-d]pyrimidin-4-amine] | 6 | 5180 | 1770 | – | –
12 | c1cc(-c2nc(NC3CC3)c3ccncc3n2)ccn1 [Example 21, N-cyclopropyl-2-(pyridin-4-yl)pyrido[3,4-d]pyrimidin-4-amine] | 7 | 8810 | 19200 | – | –
13 | CC(C)(CCS(C)(=O)=O)Nc1nc(-c2ccncc2)nc2cnccc12 [Example 22, N-(4-methanesulfonyl-2-methylbutan-2-yl)-2-(pyridin-4-yl)pyrido[3,4-d]pyrimidin-4-amine] | 7 | 13000 | 11400 | – | –
14 | CC(CO)(CO)Nc1nc(-c2ccncc2)nc2cnccc12 [Example 23, 2-methyl-2-{[2-(pyridin-4-yl)pyrido[3,4-d]pyrimidin-4-yl]amino}propane-1,3-diol] | 10 | 11800 | 9580 | – | –
15 | CC(O)C(C)Nc1nc(-c2ccncc2)nc2cnccc12 (stereo not shown) [Example 24, 3-{[2-(pyridin-4-yl)pyrido[3,4-d]pyrimidin-4-yl]amino}butan-2-ol] | 17 | 33100 | 34700 | – | –
16 | O[C@@H]1CCC[C@@H]1Nc1nc(-c2ccncc2)nc2cnccc12 [Example 26, (1R,2S)-2-{[2-(pyridin-4-yl)pyrido[3,4-d]pyrimidin-4-yl]amino}cyclopentan-1-ol] | 31 | > 100000 | 54600 | – | –
17 | COC(=O)C(C)(C)Nc1nc(-c2ccncc2)nc2cnccc12 [Example 32, Methyl 2-methyl-2-{[2-(pyridin-4-yl)pyrido[3,4-d]pyrimidin-4-yl]amino}propanoate] | 47 | > 20000 | > 10000 | – | –
18 | FC(F)(F)C(Cc1ccccc1)Nc1nc(-c2ccncc2)nc2cnccc12 (stereo not shown) [Example 38, 2-(pyridin-4-yl)-N-(1,1,1-trifluoro-3-phenylpropan-2-yl)pyrido[3,4-d]pyrimidin-4-amine] | 240 | > 20000 | > 10000 | – | –
19 | CS(=O)(=O)CCNc1nc(-c2ccncc2)nc2cnccc12 [Example 41, N-(2-methanesulfonylethyl)-2-(pyridin-4-yl)pyrido[3,4-d]pyrimidin-4-amine] | 708 | > 20000 | > 10000 | – | –
20 | O=C(O)CC(Nc1nc(-c2ccncc2)nc2cnccc12)C(F)(F)F (stereo not shown) [Example 44, 4,4,4-trifluoro-3-{[2-(pyridin-4-yl)pyrido[3,4-d]pyrimidin-4-yl]amino}butanoic acid] | > 2500 | > 20000 | > 10000 | – | –
21 | Cc1n[nH]c(C)c1-c1nc(NC(C)(C)C(F)(F)F)c2ccncc2n1 [Example 144, 2-(3,5-dimethyl-1H-pyrazol-4-yl)-N-(1,1,1-trifluoro-2-methylpropan-2-yl)pyrido[3,4-d]pyrimidin-4-amine] | – | 4440 | 606 | – | –
22 | CC1(Nc2nc(-c3ccnc4[nH]ccc34)nc3cnccc23)CC1 [Example 154, N-(1-methylcyclopropyl)-2-{1H-pyrrolo[2,3-b]pyridin-4-yl}pyrido[3,4-d]pyrimidin-4-amine] | – | 1060 | 2530 | – | –

Further lines, with some results ahead:

Row | IC50 (LATS1) [nM] | SMILES | EC50 ([1]; Homo sapiens) [nM] | IC50 ([2]; Homo sapiens) [nM] | EC50 [1] [nM] | IC50 [2] [nM]
23 | 1 | CC[C@H](C)Nc1nc(-c2ccncc2)nc2cnccc12 (single isomer, unassigned) [Example 68a] | 1680 | 1430 | – | –
24 | 2 | CC[C@@H](C)Nc1nc(-c2ccncc2)nc2cnccc12 (single isomer, unassigned) [Example 68b] | 2920 | 4270 | – | –
25 | 6 | OCC1(Nc2nc(-c3ccncc3)nc3cnccc23)CCCC1 [Example 51, (1-{[2-(pyridin-4-yl)pyrido[3,4-d]pyrimidin-4-yl]amino}cyclopentyl)methanol] | 4390 | 57800 | – | –
26 | 12 | COC1CC(Nc2nc(-c3ccncc3)nc3cnccc23)C1 (stereo not shown) [Example 52, N-(3-methoxycyclobutyl)-2-(pyridin-4-yl)pyrido[3,4-d]pyrimidin-4-amine] | > 20000 | 11300 | – | –
27 | 460 | CCOC(=O)C1(Nc2nc(-c3ccncc3)nc3cnccc23)CCC1 [Example 55, ethyl 1-{[2-(pyridin-4-yl)pyrido[3,4-d]pyrimidin-4-yl]amino}cyclobutane-1-carboxylate] | > 20000 | > 10000 | – | –
28 | 1160 | O=C(O)C1(Nc2nc(-c3ccncc3)nc3cnccc23)CCC1 [Example 56, 1-{[2-(pyridin-4-yl)pyrido[3,4-d]pyrimidin-4-yl]amino}cyclobutane-1-carboxylic acid] | > 20000 | > 10000 | – | –
29 | 1 | CCC(C)(C)Nc1nc(-c2ccncc2)nc2cnccc12 [Example 63, N-(2-methylbutan-2-yl)-2-(pyridin-4-yl)pyrido[3,4-d]pyrimidin-4-amine] | 338 | 131 | – | –
30 | 3 | C#CC(C)(C)Nc1nc(-c2ccncc2)nc2cnccc12 [Example 69, N-(2-methylbut-3-yn-2-yl)-2-(pyridin-4-yl)pyrido[3,4-d]pyrimidin-4-amine] | 11500 | 4720 | – | –
31 | 9 | CCN(CC)c1cc(-c2ccncc2)nc2cnccc12 [Example 266, N,N-diethyl-2-(pyridin-4-yl)-1,7-naphthyridin-4-amine] | 5350 | – | – | –
32 | 65 | CC(C)N(C)c1cc(-c2ccncc2F)nc2cnccc12 [Example 277, 2-(3-fluoropyridin-4-yl)-N-methyl-N-(propan-2-yl)-1,7-naphthyridin-4-amine] | > 20000 | – | – | –
33 | 90 | Fc1cnccc1-c1cc(N2CCCCC2)c2ccncc2n1 [Example 278, 2-(3-fluoropyridin-4-yl)-4-(piperidin-1-yl)-1,7-naphthyridine] | > 20000 | – | – | –
34 | > 2500 | Fc1cnccc1-c1cc(N2CCOCC2)c2ccncc2n1 [Example 279, 2-(3-fluoropyridin-4-yl)-4-(morpholin-4-yl)-1,7-naphthyridine] | > 20000 | – | – | –
35 | 190 | CC(C)(C)Nc1cc(-c2ccncc2Cl)nc2cnccc12 [Example 285, N-tert-butyl-2-(3-chloropyridin-4-yl)-1,7-naphthyridin-4-amine] | > 20000 | – | – | –
36 | 560 | CCN(CC)c1cc(-c2ccncc2Cl)nc2cnccc12 [Example 286, 2-(3-chloropyridin-4-yl)-N,N-diethyl-1,7-naphthyridin-4-amine] | > 20000 | – | – | –

Source: US11458138B2 (Novartis AG, priority 2017, dated 2022)
